Columns and labels:
[1] = Deaths of animals during treatment, Example 1; type: in vivo, nude mice (C57BL/6JBom-nu); conditions: single substance 10 μg/kg every 12 hours; dissection: metastasis / abdominal carcinosis
Procedure: (§1) Female nude mice (C57BL/6JBom-nu, Bomholtgård Breeding and Research Centre, Denmark), 8 weeks old, with a mean body weight of 22.9 g (range 20.4-25.5), were used in this investigation. The mice were kept one to each cage in a laminar filtered airflow cabinet under pathogen-free conditions. The animals were kept under a constant temperature (22±2° C.) and relative humidity (55±5%), with 12 h dark/light cycles. They were fed on a standard pellet diet (R 34, Lactamin, Vadstena, Stockholm) and given water ad libitum. All experiments were performed by aseptic techniques under laminar airflow.
(§2) The animals were divided into two groups of 10 mice each. The first group received s.c. injections of 100 μl saline solution containing a mixture of octreotide (Sandostatin®, Novartis), galanin (synthetic human galanin, Sigma, Stockholm), and serotonin (5-hydroxytryptamine, oxalate salt, Sigma) at 10 μg/kg body weight each. Injections were administered every 12 hours for five days. The second group served as controls and received only saline solution. Thirty-two mice were implanted with the tumour as described above and left for seven days. After measuring the tumour diameter, the animals were divided into four groups of eight. […]

[2] = test system: N-methyl-N′-nitroguanidine-induced rat colonic adenocarcinoma; test: Tumour volume and wet weight, Example 1; type: in vivo, nude mice (C57BL/6JBom-nu); conditions: single substance 10 μg/kg body weight every 12 hours for five days, vs controls; for tumour volume: P=0.4; for tumour weight: P=0.8
Procedure: as §1
Twenty mice were injected s.c. with 100 μl cell suspension containing 2×10^6 viable cells of an N-methyl-N′-nitroguanidine-induced rat colonic adenocarcinoma (provided kindly by Professor L.-O. Hafström, Departnent of Surgery, University Hospital, Umeå, Sweden). After seven days, the greatest and least diameters of the tumours were measured and the volume was calculated with the use of the following formula:
volume=(mean diameter)^333 π/6.
(§3) The animals were divided into two groups of 10 mice each. The first group received s.c. injections of 100 μl saline solution containing a mixture of octreotide (Sandostatin®, Novartis), galanin (synthetic human galanin, Sigma, Stockholm), and serotonin (5-hydroxytryptamine, oxalate salt, Sigma) at 10 μg/kg body weight each. Injections were administered every 12 hours for five days. The second group served as controls and received only saline solution. Thirty-two mice were implanted with the tumour as described above and left for seven days. After measuring the tumour diameter, the animals were divided into four groups of eight. The first group was injected with 100 μl saline solution, the second with 100 μl saline solution containing 10 μg/kg body weight octreotide, the third group with 100 μl saline solution containing 10 μg/kg body weight galanin, and the last group was injected with 100 μl saline solution containing 10 μg/kg bodyweight serotonin. Injections were administered every 12 hours for five days.
(§4) At the end of the experiments, the animals were weighed and then decapitated. The tumours were dissected carefully and their diameters and weight were determined. Three tissue samples cut perpendicular to the surface were taken from each tumour, two from the periphery and one from the middle. The tissue samples were fixed overnight in 4% buffered paraformaldehyde, embedded in paraffin wax, and cut at 5 μm.

[3] = test system: N-methyl-N′-nitroguanidine-induced rat colonic adenocarcinoma; test: Apoptosis by in situ hybridisation, apoptotic index, Example 1; type: in vivo, nude mice (C57BL/6JBom-nu); conditions: single substance 10 μg/kg, five days; for Apoptotic index, second in situ hybridisation kit (mean±SD): controls 3.5±0.6, P=0.15; for Apoptotic index, first in situ hybridisation kit: vs controls, P=0.2
Procedure: as §3, §4
Apoptosis was detected by in situ hybridisation using two different kits (TA200 and TA5411) from R&D Systems Inc (Minneapolis, Minn. USA). Both kits detect DNA fragmentation, but with two different detection approaches. In the first kit, fragments of DNA were detected by incorporating modified nucleotides at the 3′OH ends of the fragments, using terminal deoxynucleotidyl transferase (TdT). The incorporated 5-bromodeoxyuridine (BrdU) was detected by a biotinylated anti-BrdU antibody. A streptavidin-conjugated horsradish peroxidase specifically bound to the biotinylated antibody. In the second kit, TdT added biotinylated nucleotides to the 3′OH ends of the DNA fragments. Again, a streptavidin-conjugated horseradish peroxidase specifically bound to the biotinylated DNA fragments. The peroxidase in both kits was detected by diaminobenzidine tetrahydrochloride (DAB). The sections were counter-stained with methyl green. […]
Apoptotic index was determined using the unbiased counting frames (as described in detail previously), adapted to computer image analysis (Palmqvist et al., 1998). […] About 40 fields from each tumour, spread randomly in sections from the three tissue samples, were measured. For each tumour about 200 positive and 200 negative nuclei were counted. The labelling index (LI) was calculated as follows: […]

[4] = test system: N-methyl-N′-nitroguanidine-induced rat colonic adenocarcinoma; test: Proliferation (PCNA immunostaining), proliferation index, Example 1; type: in vivo, nude mice (C57BL/6JBom-nu); conditions: single substance 10 μg/kg, five days; vs controls, P=0.8
Procedure: as §2
At the end of the experiments, the animals were weighed and then decapitated. The tumours were dissected carefully and their diameters and weight were determined. […]
To detect proliferation, the sections from the tumour tissue samples from all the animals were immnmostained with the avidin-biotin-complex (ABC) method (Dakopatts, Glostrup, Denmark), as described in detail earlier (E1-Salhy et al., 1993). […] Peroxidase was detected by immersing the sections in 50 ml Tris-buffer containing 25 mg diaminobenzidine tetrahydrochloride (DAB) and 10 μl of 30% H2O2 followed by slight counter-staining in Mayer's haematoxylin. […] The proliferating index was determined as described for apoptosis.

rat colonic cancer cells = conditions: in vivo; cited from earlier work
[5] = test system: asymptomatic advanced colon carcinoma; conditions: about 7 μ/kg/d; patients; cited from earlier work

Compound: CC(C)C[C@H](NC(=O)CNC(=O)[C@H](CC(N)=O)NC(=O)[C@H](CCCCN)NC(=O)[C@H](CC(=O)O)NC(=O)[C@H](CO)NC(=O)[C@H](Cc1ccccc1)NC(=O)[C@H](CO)NC(=O)[C@H](CCCNC(=N)N)NC(=O)[C@H](Cc1cnc[nH]1)NC(=O)[C@H](CC(N)=O)NC(=O)CNC(=O)[C@@H](NC(=O)[C@H](C)NC(=O)[C@H](Cc1cnc[nH]1)NC(=O)[C@@H]1CCCN1C(=O)CNC(=O)[C@H](CC(C)C)NC(=O)[C@H](CC(C)C)NC(=O)[C@H](Cc1ccc(O)cc1)NC(=O)CNC(=O)[C@H](C)NC(=O)[C@H](CO)NC(=O)[C@H](CC(N)=O)NC(=O)[C@H](CC(C)C)NC(=O)[C@@H](NC(=O)[C@H](Cc1c[nH]c2ccccc12)NC(=O)CN)[C@@H](C)O)C(C)C)C(=O)N[C@H](C(=O)N[C@@H](CO)C(=O)O)[C@@H](C)O [galanin]
- deaths during the experiment [1]: Two mice in the group treated with galanin died

Compound: NCCc1c[nH]c2ccc(O)cc12 [serotonin, 5-hydroxytryptamine]
- tumour volume [2]: no significant difference
- tumour weight [2]: no significant difference
- Apoptotic index, second in situ hybridisation kit (mean±SD) [3]: 4±0.5
- Apoptotic index, first in situ hybridisation kit [3]: no difference
- tumour proliferation index [4]: Neither was there any difference
- mitotic rate of rat colonic cancer cells (rat colonic cancer cells): increase

Compound: octreotide
- tumour volume [2]: no significant difference
- tumour weight [2]: no significant difference
- Apoptotic index, second in situ hybridisation kit (mean±SD) [3]: 3±1.1
- Apoptotic index, first in situ hybridisation kit [3]: no difference
- tumour proliferation index [4]: Neither was there any difference
- progression of the disease [5]: no effect
